Measured values published in ChEMBL document CHEMBL1140635, “Computational modeling tools for the design of potent antimalarial bisbenzamidines: overcoming the antimalarial potential of pentamidine” (Bioorg Med Chem, 2007).

Tested on: Plasmodium falciparum
Assay: Antiplasmodial activity against chloroquine-sensitive Plasmodium falciparum D6 by LDH reporter assay
Format: functional, organism-based

N=C(N)c1ccc(COc2ccccc2OCc2ccc(C(=N)N)cc2)cc1
IC50: 671 nM

CCCCCCCNC(=N)c1ccc(N2CCN(c3ccc(C(=N)NCCCCCCC)cc3)CC2)cc1
IC50: 48 nM

N=C(N)c1ccc(OCc2ccccc2COc2ccc(C(=N)N)cc2)cc1
IC50: 313 nM

C(=C1CCN(c2ccc(C3=NCCN3)cc2)CC1)c1ccc(C2=NCCN2)cc1
IC50: 840 nM

c1cc(C2=NCCN2)ccc1CC1CCN(c2ccc(C3=NCCN3)cc2)CC1
IC50: 402 nM

CCCNC(=N)c1ccc(N2CCN(c3ccc(C(=N)NCCC)cc3)CC2)cc1
IC50: 29 nM

c1ccc2[nH]c(-c3ccc(N4CCN(c5ccc(-c6nc7ccccc7[nH]6)cc5)CC4)cc3)nc2c1
IC50: 4880 nM

N=C(NCCCO)c1ccc(N2CCN(c3ccc(C(=N)NCCCO)cc3)CC2)cc1
IC50: 8800 nM

N=C(NC1CCC1)c1ccc(N2CCN(c3ccc(C(=N)NC4CCC4)cc3)CC2)cc1
IC50: 7 nM

c1cc(N2CCN(c3ccc(C4=NCCCN4)cc3)CC2)ccc1C1=NCCCN1
IC50: 106 nM

N=C(NC1CCCCCCC1)c1ccc(N2CCN(c3ccc(C(=N)NC4CCCCCCC4)cc3)CC2)cc1
IC50: 55 nM

N=C(NC1CC1)c1ccc(N2CCCN(c3ccc(C(=N)NC4CC4)cc3)CC2)cc1
IC50: 306 nM

c1cc(N2CCCN(c3ccc(C4=NCCCN4)cc3)CC2)ccc1C1=NCCCN1
IC50: 5110 nM

N=C(NO)c1ccc(N2CCN(c3ccc(C(=N)NO)cc3)CC2)cc1
IC50: 8320 nM

CCC(C)CNC(=N)c1ccc(N2CCN(c3ccc(C(=N)NCC(C)CC)cc3)CC2)cc1 (centres undefined)
IC50: 69 nM

CNC(=N)c1ccc(N2CCN(c3ccc(C(=N)NC)cc3)CC2)cc1
IC50: 862 nM

CCCCCCCCCCCCNC(=N)c1ccc(N2CCN(c3ccc(C(=N)NCCCCCCCCCCCC)cc3)CC2)cc1
IC50: 3890 nM

N=C(N)c1ccc(OCc2cccc(COc3ccc(C(=N)N)cc3)c2)cc1
IC50: 85 nM

CCCCCCCCCCNC(=N)c1ccc(N2CCN(c3ccc(C(=N)NCCCCCCCCCC)cc3)CC2)cc1
IC50: 75 nM

CCCCCCCCNC(=N)c1ccc(N2CCN(c3ccc(C(=N)NCCCCCCCC)cc3)CC2)cc1
IC50: 138 nM

c1cc(N2CCCN(c3ccc(C4=NCCN4)cc3)CC2)ccc1C1=NCCN1
IC50: 148 nM

c1cc(N2CCN(c3ccc(C4=NCCN4)cc3)CC2)ccc1C1=NCCN1
IC50: 89 nM

CCCCCCNC(=N)c1ccc(N2CCN(c3ccc(C(=N)NCCCCCC)cc3)CC2)cc1
IC50: 35 nM

N=C(N)c1ccc(N2CCCN(c3ccc(C(=N)N)cc3)CC2)cc1
IC50: 1600 nM

CCCCNC(=N)c1ccc(N2CCCN(c3ccc(C(=N)NCCCC)cc3)CC2)cc1
IC50: 18 nM

N=C(N)c1ccc(OCCCCCOc2ccc(C(=N)N)cc2)cc1 [PENTAMIDINE]
IC50: 278 nM

N=C(NC1CCCCCC1)c1ccc(N2CCN(c3ccc(C(=N)NC4CCCCCC4)cc3)CC2)cc1
IC50: 36 nM

CCCCCCCCCNC(=N)c1ccc(N2CCN(c3ccc(C(=N)NCCCCCCCCC)cc3)CC2)cc1
IC50: 88 nM

CCCCCNC(=N)c1ccc(N2CCN(c3ccc(C(=N)NCCCCC)cc3)CC2)cc1
IC50: 21 nM

N=C(N)c1ccc(OCc2ccc(COc3ccc(C(=N)N)cc3)cc2)cc1
IC50: 114 nM

CC(C)CCNC(=N)c1ccc(N2CCN(c3ccc(C(=N)NCCC(C)C)cc3)CC2)cc1
IC50: 42 nM

CCNC(=N)c1ccc(N2CCN(c3ccc(C(=N)NCC)cc3)CC2)cc1
IC50: 124 nM

N=C(NC1CC1)c1ccc(N2CCN(c3ccc(C(=N)NC4CC4)cc3)CC2)cc1
IC50: 358 nM

N=C(N)c1ccc(NC(=O)CCCCC(=O)Nc2ccc(C(=N)N)cc2)cc1
IC50: 640 nM
